# Test results taken from patent US20090088461A1, “Methods of Treating or Preventing Cardiac Disease Associated With a High Fat Diet” (Synvista Therapeutics, Inc., priority 2007, published 2009).
# Like-named read-outs stand apart in the source and are kept apart here.
# Legend:
# [1] = target: T1, AGE-BSA previously crosslinked to the collagen (Bos taurus, UniProt P02769); assay: Cross-Link Breaking Assay (sandwich enzyme immunoassay); assay type: biochemical; conditions: for Breaking Anti-AGE: anti-AGE antibody; for Breaking Anti-BSA: anti-BSA antibody
# T1 construct: Bovine Serum Albumin (Type V), (BSA) Calbiochem; purchased Calbiochem (BSA Type V); Collaborative Biomedical Products (Biocoat collagen plates)
# Procedure: The present invention also involves a novel sandwich enzyme immunoassay used to ascertain the ability of test compounds to “break” or reverse already formed advanced glycosylation endproducts by detecting the breaking of AGE (Advanced glycosylation endproduct) moieties from AGE-crosslinked protein. This assay comprises:
# a) incubation of AGE-modified bovine serum albumin (AGE BSA) on collagen-coated wells of microtiter plates for a period of 2-6 hours' at a temperature of 37° C.
# b) washing of the wells with PBS-Tween;
# c) application of the test compounds to the washed wells of step b;
# d) incubation of the test compounds applied to the washed wells for an additional 12-24 hours at a temperature of about 37° C.; and
# e) detection of the AGE-breaking using an antibody raised against AGE-ribonuclease or cross-link breaking with an antibody against BSA.
# In order to ascertain the ability of the compounds of the instant invention to “break” or reverse already formed advanced glycosylation endproducts, a novel sandwich enzyme immunoassay was developed which detects breaking of AGE (Advanced glycosylation endproduct) moieties from AGE-crosslinked protein. The assay utilizes collagen-coated 96 well microtiter plates that are obtained commercially. […] Following an incubation period of 16 hours (37° C.) cross-link-breaking is detected using an antibody raised against AGE-ribonuclease or with an antibody against BSA. […] Details of the assay are as follows:
# 1. AGE-BSA stock solutions were prepared as follows. Sodium phosphate buffer (0.4 M) was prepared by dissolving 6 grams of monobasic sodium phosphate in 100 ml of distilled water, 7 grams of dibasic sodium phosphate (0.4 M) in 100 ml of distilled water and adjusting the pH of the dibasic solution to 7.4 with the monobasic solution. Sodium azide (0.02 grams) was added per 100 ml volume to inhibit bacterial growth. The BSA solution was prepared as follows: 400 mg of Type V BSA (bovine serum albumin) was added for each ml of sodium phosphate buffer (above). A 400 mM glucose solution was prepared by dissolving 7.2 grams of dextrose in 100 ml of sodium phosphate buffer (above). The BSA and glucose solutions were mixed 1:1 and incubated at 37° C. for 12 weeks. The pH of the incubation mixture was monitored weekly and adjusted to pH 7.4 if necessary. After 12 weeks, the AGE-BSA solution was dialyzed against PBS for 48 hours with four buffer changes, each at a 1:500 ratio of solution to dialysis buffer. Protein concentration was determined by the micro-Lowry method. The AGE-BSA stock solution was aliquoted and stored at −20° C.
# 2. Working solutions for crosslinking and breaking studies were prepared as follows. Test compounds were dissolved in PBS and the pH was adjusted to pH 7.4 if necessary. AGE-BSA stock solution was diluted in PBS to measure maximum crosslinking and in the inhibitor solution for testing inhibitory activity of compounds. The concentration of AGE-BSA necessary to achieve the optimum sensitivity was determined by initial titration of each lot of AGE-BSA.
# 3. Wash buffer (“PBS-Tween”) was, prepared as follows. PBS was prepared by dissolving the following salts in one liter of distilled water: NaCl, 8 grams; KCl, 0.2 gram, KH2PO4. […] Tween-20 was added to a final concentration of 0.05% (vol/vol).
# 4. Substrates for detection of secondary antibody binding were prepared by diluting the HRP substrate buffer 1:10 in distilled water and mixing with ABTS chromogen 1:50 just prior to use.
# 1. Biocoat plates were blocked with 300 μl of “Superbloc”. Plates were blocked for one hour at room temperature and were washed with PBS-Tween three times with the Dynatech platewasher before addition of test reagents.
# 2. Each experiment was set up in the following manner. The first three wells of the Biocoat plate were used for the reagent blank. Fifty microliters of solutions AGE-BSA were added to test wells in triplicate and only PBS in blank wells.
# [2] = target: cross-linking of glycated bovine serum albumin (AGE-BSA) to the rat tail tendon collagen-coated 96-well plate (Bos taurus, UniProt P02769); assay: Cross-Linking Inhibition Assay; conditions: for inhibition at 10000 µM: read-out: Relative Cross-link Inhibition (at 10 mM)
# Procedure: The following method was used to evaluate the ability of the compounds of the present invention to inhibit the cross-linking of glycated bovine serum albumin (AGE-BSA) to the rat tail tendon collagen-coated 96-well plate.
# The blocking solution was removed from the wells by, washing the plate twice with PBS-'Tween 20 solution (0.05% Tween 20) using a NUNq-multiprobe or Dynatech ELISA-plate washer. Cross-linking of AGE-BSA (1 to 10 mg per well depending on the batch of AGE-BSA) to rat tail tendon collagen coated plate was performed with and without the testing ‘compound dissolved in PBS buffer at pH 7.4 at the desired concentrations by the, addition of 50 μl each of the AGE-BSA diluted in PBS or in the solution of test compound at 37° C. for 4 hours.
# Unbrowned BSA in PBS buffer with or without testing compound were added to the separate wells as the blanks. The un-cross-linked AGE-BSA was then removed by washing the wells three times with PBS-Tween buffer. The amount of AGE-BSA cross-linked to the tail tendon collagen-coated plate was then quantitated using a polyclonal antibody raised against AGE-RNase. After a one-hour incubation period, AGE antibody was removed by washing 4 times with PBS-Tween.
# The bound AGE antibody was then detected with the addition of horseradish peroxidase-conjugated secondary antibody—goat anti-rabbit immunoglobulin and incubation for 30 minutes. […] The reaction was allowed for an additional 15 minutes and the absorbance was read at 410 nm in a Dynatech plate reader.
# [3] = Reaction with 1-phenyl-1,2-propanedione
# [4] = target: AGE-crosslinks that form when AGE-modified BSA (AGE-BSA) is allowed to react with unmodified, native collagen (Bos taurus, UniProt P02769); assay: Release of BSA from pre-formed AGE-BSA/collagen complexes; assay type: biochemical
# From the text: Once early, addition products form on proteins, further reactions can ensue to effect a covalent, protein-protein crosslinking reaction. In this regard, a compound of the formula I, N-phenacylthiazolium bromide, was allowed to react with the AGE-crosslinks that form when AGE-modified BSA (AGE-BSA) is allowed to react with unmodified, native collagen. […] Again, this confirmed that a significant portion of the AGE-crosslinks that form under experimental conditions consist of an α-diketone or related structure that is susceptible to cleavage by the advantageous bidentate-type molecules of the compounds of formula I under physiological conditions.
# [5] = tested on: IgG crosslinked to circulating red blood cells; assay: RBC-IgG assay; assay type: in vivo; conditions: streptozotocin-induced diabetic rats, dosed orally 10 mg/kg body weight, 19 days
# From the text: 2. […] 3. […] 4. […] 5. […] 6. […] 7. […] 8.
# 10. […] 11. […] 12. […] 13. […] 14. […] 15. […] 16. […] 17.
# Chain of cross-linking of glycated bovine serum albumin (AGE-BSA) to the rat tail tendon collagen-coated 96-well plate (P02769 25-607): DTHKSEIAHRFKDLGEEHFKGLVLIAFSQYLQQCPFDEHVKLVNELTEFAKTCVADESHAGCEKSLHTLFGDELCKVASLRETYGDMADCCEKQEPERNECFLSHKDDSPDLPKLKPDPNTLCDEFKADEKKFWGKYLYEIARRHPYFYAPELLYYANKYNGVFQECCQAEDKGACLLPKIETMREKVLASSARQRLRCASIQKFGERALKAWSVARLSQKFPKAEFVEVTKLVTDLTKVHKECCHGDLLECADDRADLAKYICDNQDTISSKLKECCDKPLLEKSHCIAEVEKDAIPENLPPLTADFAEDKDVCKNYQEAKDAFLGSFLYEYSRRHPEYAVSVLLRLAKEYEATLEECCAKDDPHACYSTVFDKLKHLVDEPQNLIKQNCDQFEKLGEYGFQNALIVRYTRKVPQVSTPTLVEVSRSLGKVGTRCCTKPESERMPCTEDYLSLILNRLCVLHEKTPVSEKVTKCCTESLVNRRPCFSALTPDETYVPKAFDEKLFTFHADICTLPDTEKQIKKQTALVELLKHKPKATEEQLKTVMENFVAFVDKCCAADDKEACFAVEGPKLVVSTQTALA
# T1 sequence (P02769 25-607): as above
# T1 sequence (P02454 152-1207 partner limits assumed): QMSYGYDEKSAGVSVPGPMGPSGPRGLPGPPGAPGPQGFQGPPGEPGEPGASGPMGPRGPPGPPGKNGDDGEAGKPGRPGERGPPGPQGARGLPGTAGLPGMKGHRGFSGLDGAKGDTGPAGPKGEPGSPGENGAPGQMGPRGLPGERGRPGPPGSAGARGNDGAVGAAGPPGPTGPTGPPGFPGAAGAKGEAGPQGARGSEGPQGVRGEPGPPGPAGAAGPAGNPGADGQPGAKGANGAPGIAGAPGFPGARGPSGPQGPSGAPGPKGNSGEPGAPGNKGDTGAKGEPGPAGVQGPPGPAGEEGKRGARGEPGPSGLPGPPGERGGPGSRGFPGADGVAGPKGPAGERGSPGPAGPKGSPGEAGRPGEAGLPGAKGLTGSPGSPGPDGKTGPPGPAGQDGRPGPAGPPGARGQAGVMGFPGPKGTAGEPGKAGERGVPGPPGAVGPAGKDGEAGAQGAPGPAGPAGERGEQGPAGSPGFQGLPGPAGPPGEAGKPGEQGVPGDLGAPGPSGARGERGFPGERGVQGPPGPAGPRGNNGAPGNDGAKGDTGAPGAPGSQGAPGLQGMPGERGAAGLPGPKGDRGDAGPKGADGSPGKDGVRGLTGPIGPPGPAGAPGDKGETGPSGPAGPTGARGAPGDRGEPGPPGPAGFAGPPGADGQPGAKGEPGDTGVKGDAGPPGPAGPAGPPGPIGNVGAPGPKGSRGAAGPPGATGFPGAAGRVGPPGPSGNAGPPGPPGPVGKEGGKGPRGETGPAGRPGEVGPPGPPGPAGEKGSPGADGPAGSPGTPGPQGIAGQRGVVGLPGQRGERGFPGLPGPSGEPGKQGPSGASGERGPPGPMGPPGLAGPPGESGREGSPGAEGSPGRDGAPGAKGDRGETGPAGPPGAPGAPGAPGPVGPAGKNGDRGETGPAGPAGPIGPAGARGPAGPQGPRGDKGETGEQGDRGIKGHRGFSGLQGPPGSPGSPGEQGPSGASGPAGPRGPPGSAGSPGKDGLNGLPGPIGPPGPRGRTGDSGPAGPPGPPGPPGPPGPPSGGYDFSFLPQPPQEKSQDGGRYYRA
# T1 sequence (P02466 86-1125 partner limits assumed): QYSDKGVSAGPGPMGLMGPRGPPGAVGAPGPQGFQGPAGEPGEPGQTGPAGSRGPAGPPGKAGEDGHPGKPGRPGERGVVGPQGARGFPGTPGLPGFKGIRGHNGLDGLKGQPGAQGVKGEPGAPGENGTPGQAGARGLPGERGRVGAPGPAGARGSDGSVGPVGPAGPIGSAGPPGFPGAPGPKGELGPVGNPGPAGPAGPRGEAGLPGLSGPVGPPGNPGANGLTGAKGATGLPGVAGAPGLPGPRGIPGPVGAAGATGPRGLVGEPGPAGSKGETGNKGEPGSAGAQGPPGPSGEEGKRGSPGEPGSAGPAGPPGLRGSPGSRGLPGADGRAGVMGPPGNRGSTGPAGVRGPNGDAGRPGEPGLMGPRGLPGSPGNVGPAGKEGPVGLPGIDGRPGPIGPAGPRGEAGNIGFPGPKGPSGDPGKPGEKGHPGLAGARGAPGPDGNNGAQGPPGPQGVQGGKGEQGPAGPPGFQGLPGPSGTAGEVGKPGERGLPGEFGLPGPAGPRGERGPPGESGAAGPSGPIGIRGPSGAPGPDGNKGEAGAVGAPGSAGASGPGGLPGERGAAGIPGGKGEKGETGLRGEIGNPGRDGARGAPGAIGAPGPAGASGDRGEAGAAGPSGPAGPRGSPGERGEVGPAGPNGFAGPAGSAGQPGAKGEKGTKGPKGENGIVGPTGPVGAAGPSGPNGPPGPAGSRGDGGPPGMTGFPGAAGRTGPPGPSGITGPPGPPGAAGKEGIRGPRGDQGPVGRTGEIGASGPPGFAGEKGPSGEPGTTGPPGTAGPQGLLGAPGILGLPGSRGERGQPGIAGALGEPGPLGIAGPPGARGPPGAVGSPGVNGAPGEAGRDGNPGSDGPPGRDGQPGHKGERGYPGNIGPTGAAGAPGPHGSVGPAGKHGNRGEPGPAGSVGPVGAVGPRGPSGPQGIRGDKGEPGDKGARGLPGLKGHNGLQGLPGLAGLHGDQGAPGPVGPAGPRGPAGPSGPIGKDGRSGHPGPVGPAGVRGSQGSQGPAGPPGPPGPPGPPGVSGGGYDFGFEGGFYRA
# Chain of AGE-crosslinks that form when AGE-modified BSA (AGE-BSA) is allowed to react with unmodified, native collagen (P02769 25-607): as the sequence (P02769 25-607) above
smiles,measurement,setting,value
Cc1c(CCO)sc[n+]1CC(=O)c1ccccc1.[Br-] [3-(2-phenyl-2-oxoethyl)-4-methyl-5-(2-hydroxyethyl)-thiazolium bromide],Breaking Anti-AGE,[1]; at 30 mM,67%
same,Breaking Anti-BSA,[1]; at 30 mM,13%
same,IC50,[2],> 10000 µM
same,inhibition at 10000 µM,[2],36%
COC(=O)c1ccc(NC(=O)C[n+]2csc(CCO)c2C)cc1O [3-(2-(4′-carbmethoxy-3′-hydroxyanilino)-2-oxoethyl]-4-methyl-5-(2′-hydroxyethyl)-thiazolium bromide],Breaking Anti-AGE,[1]; at 10 mM,24%
same,Breaking Anti-BSA,[1]; at 10 mM,18%
same,IC50,[2],1760 µM
Cc1csc[n+]1CC(N)=O.[Br-] [3-(2-amino-2-oxoethyl)-4-methyl-thiazolium bromide],Breaking Anti-AGE,[1]; at 30 mM,89%
same,Breaking Anti-BSA,[1]; at 30 mM,44%
same,IC50,[2],700 µM
O=C(O)C[n+]1csc2ccccc21.[Br-] [3-(carboxymethyl)-benzothiazolium bromide],Breaking Anti-AGE,[1]; at 30 mM,63.7%
same,Breaking Anti-BSA,[1]; at 30 mM,17.9%
same,inhibition at 10000 µM,[2],16%
O=C(C[n+]1ccsc1)c1ccccc1.[Br-] [3-(2-phenyl-2-oxoethyl)thiazolium bromide],"reaction with 1-phenyl-1,2-propanedione to produce benzoic acid",[3],rapid and readily proceeded
same,release of BSA from the pre-formed AGE-mediated complexes,[4],concentration-dependent release of BSA
same,Breaking Anti-AGE,[1]; concentration not given,73%
same,Breaking Anti-BSA,[1]; concentration not given,98%
same,IC50,[2],11100 µM
same,inhibition at 10000 µM,[2],34%
"Cc1c(CCOCc2c(Cl)cccc2Cl)sc[n+]1N.Cc1cc(C)c(S(=O)(=O)[O-])c(C)c1 [3-amino-4-methyl-5-(2(2′,6′-dichlorobenzyloxy)ethyl]-thiazolium mesitylenesulfonate]",Breaking Anti-AGE,[1]; at 10 mM,31%
same,Breaking Anti-BSA,[1]; at 10 mM,54%
same,Relative Cross-link Inhibition,[2]; 3 mM,26.5% (3 mm)
COC(=O)C[n+]1ccsc1.[Br-] [3-(2-Methoxy-2-Oxoethyl)-Thiazolium Bromide],Breaking Anti-AGE,[1]; at 30 mM,38%
same,Breaking Anti-BSA,[1]; at 30 mM,41%
same,IC50,[2],250 µM
"Cc1c(CCO)sc[n+]1CC(=O)c1ccc2c(c1)OCCO2.[Br-] [3 (2-(1′,4′-benzodioxan-6-yl)-2-oxoethyl]-4-methyl-5-(2′-hydroxyethyl)-thiazolium bromide]",Breaking Anti-AGE,[1]; at 3 mM,11%
same,Breaking Anti-BSA,[1]; at 3 mM,21%
same,Relative Cross-link Inhibition (at 10 mM),[2],13%
CCCCN(CCCC)C(=O)C[n+]1csc(CCO)c1C.[Br-] [3-(2-Dibutylamino-2-oxoethyl]-4-methyl-5-(2′-hydroxyethyl)-thiazolium bromide],Breaking Anti-AGE,[1]; at 10 mM,25%
same,Breaking Anti-BSA,[1]; at 10 mM,38%
same,inhibition at 10000 µM,[2],0.8%
"Cc1sc[n+](CC(N)=O)c1C.[Br-] [3-(2-amino-2-oxoethyl)-4,5-dimethyl-thiazolium bromide]",Breaking Anti-AGE,[1]; at 30 mM,61%
same,Breaking Anti-BSA,[1]; at 30 mM,16%
same,IC50,[2],9900 µM
C=Cc1sc[n+](CC(=O)c2ccccc2)c1C.[Br-] [3-(2-phenyl-2-oxoethyl)-4-methyl-5-vinyl-thiazolium bromide],Percent Inhibition (percent breaking of RBC-IgG),[5],58 ± 21 ® 19 days %
same,Breaking Anti-AGE,[1]; at 1 mM,62%
same,Breaking Anti-BSA,[1]; at 1 mM,82%
same,IC50,"[1]; detection with anti-BSA antibody, read-out: IC50 (mM) Anti-BSA",0.1 mM
"Cc1c[n+](CC(=O)c2cc(C(C)(C)C)c(O)c(C(C)(C)C)c2)cs1 [3-[2-(3′,5′-di-tert-butyl-4′-hydroxyphenyl)-2-oxoethyl)-5-methyl-thiazolium bromide]",Percent Inhibition (percent breaking of RBC-IgG),[5],65 ± 15 @ 19 days %
same,Breaking Anti-AGE,[1]; at 1 mM,65%
same,Breaking Anti-BSA,[1]; at 1 mM,69%
same,Breaking Anti-AGE,[1]; at 10 mM,48%
same,Breaking Anti-BSA,[1]; at 10 mM,49%
same,IC50,"[1]; detection with anti-AGE antibody, read-out: IC50 (mM) Anti-AGE",3 mM
same,IC50,[2],780 µM
same,inhibition at 1000 µM,[2]; read-out: Relative Cross-link Inhibition,69%
Cc1c(CCO)sc[n+]1CC(=O)c1ccc2ccccc2c1.[Br-] [3-(2-(2′-naphthyl)-2-oxoethyl]-4-methyl-5-(2′-hydroxyethyl)-thiazolium bromide],Percent Inhibition (percent breaking of RBC-IgG),[5],40 ± 24 @ 19 days %
same,Breaking Anti-AGE,[1]; at 10 mM,52%
same,Breaking Anti-BSA,[1]; at 10 mM,61%
same,Relative Cross-link Inhibition (at 10 mM),[2],61%
Cc1c(CCO)sc[n+]1CC(N)=O.[Br-] [3-(2-amino-2-oxoethyl)-4-methyl-5-(2-hydroxyethyl)thiazolium bromide],Breaking Anti-AGE,[1]; concentration not given,65%
same,Breaking Anti-BSA,[1]; concentration not given,57%
same,IC50,[2],1420 µM
COC(=O)C[n+]1cscc1C.[Br-] [3-(2-methoxy-2-oxoethyl)-4-methylthiazolium bromide],Breaking Anti-AGE,[1]; at 30 mM,54%
same,Breaking Anti-BSA,[1]; at 30 mM,51%
same,inhibition at 10000 µM,[2],58%
